Assay results reported in ChEMBL document CHEMBL1201862, “PubChem BioAssay data set” (2004).
Calls of active or inactive are those of the source. Cut-off read from the data, not from the text of the source, for most assays here: actives have a measured EC50 and inactives only a lower limit.

Tests used:
[1] = viability of uninfected HEp-2 cells – cell-based, HTS, cytotoxicity control for RSV inhibitor project, dose response (AID 2410); type: functional; settings: human respiratory syncytial virus
[2] = NIH-3T3 fibroblast cytotoxicity, dose response, cytotoxicity control, cell-based, fluorescence, Alamar Blue, secondary assay (AID 2327); type: functional;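 note: NIH-3T3 mouse fibroblasts cultured with fluconazole at 8 µg/mL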
[3] = fluconazole-exposed Candida albicans growth modulators – fluorescence, retest, confirmation (AID 2467); type: functional, cell-based
[4] = NIH3T3 cell viability loss – ATP luminescence, mouse fibroblasts, counter-screen, dose response (AID 2010); type: functional, cell-based;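 note: cells exposed to compound for about 90 hours before reading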
[5] = Trypanosoma cruzi growth suppression in host cells – NIH3T3 host cells, beta-gal luminescence, confirmation (AID 2044); type: functional, cell-based;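 note: intracellular parasites grown in NIH/3T3 mouse fibroblasts as host cells; luminescent beta-galactosidase reporter signal from transgenic T. cruzi replicating inside host cells; inhibitors lower the luminescence signal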
[6] = biological target: T1, Heat shock factor protein 1 (Mus musculus, UniProt P38532); test: enhancement of HSF1-driven luciferase signal – cell-based, NIH3T3, luminescence, dose retest, confirmation (AID 435004); type: functional;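 note: stress induced by proteasome inhibitor MG132 added 30 min after compound; luciferase reporter driven by HSF1 response element in NIH3T3 cells; actives raise luminescence as potentiators of the MG132 stress response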
T1 sequence (P38532 whole entry): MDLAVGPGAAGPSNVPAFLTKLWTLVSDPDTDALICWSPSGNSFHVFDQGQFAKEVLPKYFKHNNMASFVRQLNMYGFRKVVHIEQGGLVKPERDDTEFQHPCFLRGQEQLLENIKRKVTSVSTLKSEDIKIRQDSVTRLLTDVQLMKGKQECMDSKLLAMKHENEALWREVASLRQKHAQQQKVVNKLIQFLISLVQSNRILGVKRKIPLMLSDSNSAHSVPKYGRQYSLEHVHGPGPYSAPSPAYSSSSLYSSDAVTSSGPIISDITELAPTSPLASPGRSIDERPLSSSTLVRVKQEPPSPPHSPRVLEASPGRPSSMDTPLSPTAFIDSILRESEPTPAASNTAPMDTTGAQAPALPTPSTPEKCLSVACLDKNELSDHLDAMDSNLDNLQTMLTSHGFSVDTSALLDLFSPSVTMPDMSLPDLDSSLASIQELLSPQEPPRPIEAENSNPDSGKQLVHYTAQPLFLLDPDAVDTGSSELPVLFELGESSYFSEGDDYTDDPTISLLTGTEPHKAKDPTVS

[7] = biological target: T1, Heat shock factor protein 1; test: decrease of HSF1-responsive luciferase luminescence – cell-based, NIH3T3, dose retest, confirmation (AID 2382); type: functional;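 note: NIH3T3 fibroblasts with HSF1-driven luciferase reporter stressed by proteasome inhibitor MG132; luminescence from HSF1-driven luciferase expression after 8 hours of MG132 stress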
[8] = tested on: Streptococcus sp. 'group A'; test: Streptococcus pyogenes SK(-)GAS viability under kanamycin – luminescence, BacTiterGlo, confirmation, counter-screen for streptokinase expression inhibitor project, dose response (AID 1900); type: functional, organism-based
[9] = tested on: Streptococcus; test: GAS UMAA2166 growth inhibition – luminescence, BacTiterGlo, counter-screen for streptokinase expression inhibitor project, dose response (AID 1915); type: functional, organism-based;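 note: potency for reduction of bacterial viability or growth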
[10] = Luminescence Cell-Based Dose Retest to Confirm Inhibitors of Cancer Stem Cells. [Related pubchem assays (depositor defined):AID2717, AID2721]; type: functional; settings: Homo sapiens
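Throughout, for AC50: cells exposed to compound for roughly 70 hours or longer before luminescence read.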

SMILES: N#Cc1c(F)cccc1N1CCOCC1
- CC50 [1]: 23.6 µM (active)

SMILES: Cc1cc(C)nc(N=C(NCc2ccc3c(c2)OCO3)NC(=O)Nc2ccccc2)n1
- EC50 [2]: > 150 µM (inactive)
- EC50 [3]: > 38 µM (not active)

SMILES: CCOC(=O)c1cnc(SC)nc1Oc1cccc(NS(=O)(=O)c2ccccc2)c1
- EC50 [4]: > 60 µM (not active)
- EC50 [5]: 1.64 µM (active)

SMILES: CNC(=S)N/N=C/c1ccc(-c2ccc(Cl)c([N+](=O)[O-])c2)o1
- EC50 [2]: > 150 µM (inconclusive)
- EC50 [3]: > 38 µM (not active)

SMILES: Cc1cc(NC(=O)c2cc(C)on2)n(-c2ccccc2)n1
- EC50 [6]: > 260 µM (inactive)

SMILES: NS(=O)(=O)c1ccc(CCNCC#Cc2ccccc2)cc1
- EC50 [7]: > 195 µM (not active)

SMILES: Cc1sc2ncnc(N3CCC(C(=O)Nc4nc(-c5cccs5)cs4)CC3)c2c1C
- EC50 [4]: > 60 µM (not active)
- EC50 [5]: 1.6 µM (active)
- EC50 [7]: 1.07 µM (active)

SMILES: COc1cccc(CN(C(=O)Cc2c[nH]c3ccccc23)C(C(=O)NC2CCCCC2)c2cccs2)c1 (stereo not given)
- EC50 [4]: > 60 µM (not active)
- EC50 [5]: 1.98 µM (active)

SMILES: COc1ccccc1C(=O)Nc1ccccc1N1CCN(C(=O)c2ccc(Cl)cc2)CC1
- CC50 [1]: 26.5 µM (active)

SMILES: CCN(CC)S(=O)(=O)c1ccc(N2CCN(C)CC2)c(NC(=O)COc2ccc(F)cc2Cl)c1
- EC50 [4]: > 60 µM (not active)
- EC50 [5]: 0.252 µM (active)

SMILES: C[C@@H](O)[C@H]1C(=O)N2C(C(=O)O)=C(S[C@@H]3CN[C@H](C(=O)N(C)C)C3)[C@H](C)[C@H]12 [MEROPENEM]
- EC50 [8]: 0.153 µM (active)
- EC50 [9]: 1.15 µM (active)

SMILES: Cc1ccc(SCCN=C(S)Nc2ccc(C)cc2C)cc1
- EC50 [4]: > 60 µM (not active)
- EC50 [5]: 2.2 µM (active)

SMILES: O=C(Nc1ccc(Br)cn1)c1cccc(-c2cc3ccccc3oc2=O)c1
- AC50 [10]: 8.81 µM (active)

SMILES: Cc1ccc(NC(=O)NC2CCCCCCC2)c(C)c1
- EC50 [2]: 19.6 µM (inconclusive)
- EC50 [3]: > 38 µM (not active)

SMILES: COc1ccc(Nc2nc(-c3ccccc3)nc3ccccc23)cc1
- CC50 [1]: 13.1 µM (active)

SMILES: COc1ccc(NC(=O)CN2C(=O)COc3ccc(S(=O)(=O)N4CCOCC4)cc32)c(OC)c1
- EC50 [7]: > 195 µM (not active)

SMILES: Cc1cccc(CN2C(=O)[C@@H]3Cc4c([nH]c5ccccc45)C(C)(C)N3C2=O)c1
- AC50 [10]: 11.9 µM (active)

SMILES: O=C(Nc1ccc(Cl)c([N+](=O)[O-])c1)c1ccc(NCCCN2CCOCC2)c([N+](=O)[O-])c1
- EC50 [4]: > 60 µM (not active)
- EC50 [5]: 0.963 µM (active)

SMILES: S=c1[nH]cc(Cc2ccccc2)s1
- EC50 [6]: > 260 µM (inactive)

SMILES: CN1CCN(C(=O)CCc2ccc(S(=O)(=O)NC3CCCCC3)cc2)CC1
- EC50 [4]: > 60 µM (not active)
- EC50 [5]: 0.141 µM (active)

SMILES: O=C(Nc1ccsc1C(=O)O)c1cccc(Oc2ccccc2)c1
- CC50 [1]: 18.3 µM (active)

SMILES: CC(=O)Nc1ccc(S(=O)(=O)NCc2ccc(C(=O)NCc3ccc4c(c3)OCO4)cc2)cc1
- EC50 [7]: > 195 µM (not active)

SMILES: CCN(c1ccccc1)S(=O)(=O)c1cccc(C(=O)NCC(c2cccs2)N2CCOCC2)c1 (stereo not given)
- AC50 [10]: > 195 µM (inactive)

SMILES: O=C(Nc1ccc(Cl)cc1)N1CCCN(c2ccc(C(F)(F)F)cc2[N+](=O)[O-])CC1
- AC50 [10]: 4.79 µM (active)

SMILES: O=C(Nc1ccc2c(c1)OCO2)c1ccc(COc2ccc3c(c2)CCC3)o1
- AC50 [10]: 3.1 µM (active)

SMILES: COc1cc(NS(=O)(=O)c2ccc(NC(=S)NC(=O)/C=C/c3ccc(OC)c(OC)c3)cc2)ncn1
- EC50 [7]: > 195 µM (not active)

SMILES: CCOc1ccccc1CN1CCN(CC2=Cc3cc(OC)ccc3OC2)CC1CCO (stereo not given)
- EC50 [4]: > 60 µM (not active)
- EC50 [5]: 1.29 µM (active)

SMILES: COc1ccc(-n2nc(C(=O)NCC(=O)NCc3ccccc3OC)c3ccccc3c2=O)c(OC)c1
- EC50 [7]: > 195 µM (not active)

SMILES: COc1cccc(-c2nc(CCl)cs2)c1
- EC50 [4]: > 60 µM (not active)
- EC50 [5]: 3.25 µM (active)

SMILES: Cc1nnc(-c2cnn(-c3ccccc3)c2N)n1Cc1cccc(C(F)(F)F)c1
- EC50 [7]: > 195 µM (not active)

SMILES: Cc1ccsc1/C=C1\C(=O)NC(=S)N(C)C1=O
- EC50 [7]: > 195 µM (not active)

SMILES: Cc1ccc(C)c(N2CCN(C(=O)c3cc(S(=O)(=O)N4CCCC4)cn3C)CC2)c1
- EC50 [7]: > 195 µM (not active)

SMILES: COc1ccc(S(=O)(=O)NCC(c2cccnc2)N2CCN(Cc3ccccc3)CC2)cc1 (stereo not given)
- EC50 [4]: > 60 µM (not active)
- EC50 [5]: 1.58 µM (active)

SMILES: C=CCOc1c(Cl)cc(CNc2ccc(C)c(Cl)c2)cc1OC
- EC50 [4]: 0.491 µM (active)
- EC50 [5]: 2.75 µM (active)
